One may read the AC50 as the midpoint of the concentration-response curve, whichever way the signal moves. For orientation: EC50 means the concentration needed to bring the measured effect to its halfway point. A word on the IC50: it is the point on the concentration scale where inhibition reaches its midpoint.

The values that follow come from ChEMBL document CHEMBL1201862, “PubChem BioAssay data set” (2004).

Calls of active or inactive are those of the source.

Data set [1] addresses T1, Cytochrome P450 2C9 (Homo sapiens, UniProt P11712).
The next data set deals with Cytochrome P450 3A4 (Homo sapiens, UniProt P08684).
Sequence of Cytochrome P450 3A4 (P08684 whole entry): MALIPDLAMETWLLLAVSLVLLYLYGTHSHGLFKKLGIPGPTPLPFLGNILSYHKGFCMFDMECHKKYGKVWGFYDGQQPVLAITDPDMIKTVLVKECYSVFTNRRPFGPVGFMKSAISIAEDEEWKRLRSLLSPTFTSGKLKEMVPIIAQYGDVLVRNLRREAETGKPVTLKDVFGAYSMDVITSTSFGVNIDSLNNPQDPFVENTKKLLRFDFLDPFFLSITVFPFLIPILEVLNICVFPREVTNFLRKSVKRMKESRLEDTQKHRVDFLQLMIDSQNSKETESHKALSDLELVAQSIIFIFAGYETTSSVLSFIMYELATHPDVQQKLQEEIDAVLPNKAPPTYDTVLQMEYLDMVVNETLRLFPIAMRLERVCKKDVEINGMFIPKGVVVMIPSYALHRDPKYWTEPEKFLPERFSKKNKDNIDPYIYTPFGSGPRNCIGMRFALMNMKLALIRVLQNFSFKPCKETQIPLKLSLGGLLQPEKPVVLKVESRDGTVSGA
Data set [2] has as its target Dual specificity tyrosine-phosphorylation-regulated kinase 1A (Rattus norvegicus, UniProt Q63470). The data set is classed as biochemical, Homo sapiens.
The target in data set [3] is T2, Microphthalmia-associated transcription factor (Homo sapiens, UniProt O75030).
T2 sequence (O75030 whole entry): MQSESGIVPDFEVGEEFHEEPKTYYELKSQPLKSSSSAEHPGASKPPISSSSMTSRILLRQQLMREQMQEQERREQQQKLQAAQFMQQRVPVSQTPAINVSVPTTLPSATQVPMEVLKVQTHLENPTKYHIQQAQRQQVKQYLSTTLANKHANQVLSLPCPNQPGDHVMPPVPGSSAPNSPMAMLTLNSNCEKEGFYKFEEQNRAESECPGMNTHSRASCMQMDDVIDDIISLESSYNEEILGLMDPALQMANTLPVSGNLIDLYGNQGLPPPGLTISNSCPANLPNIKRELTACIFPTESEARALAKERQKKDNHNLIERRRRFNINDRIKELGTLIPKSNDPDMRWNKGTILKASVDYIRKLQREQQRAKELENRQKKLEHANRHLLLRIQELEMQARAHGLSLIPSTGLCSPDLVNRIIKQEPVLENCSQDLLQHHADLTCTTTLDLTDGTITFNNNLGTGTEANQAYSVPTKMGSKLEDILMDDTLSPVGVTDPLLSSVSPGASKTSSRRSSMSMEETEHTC
Nature of the data set: reducers of TRPM1 reporter luminescence, concentration series – cell-based, SK-MEL-5, cherry-picked, set 3, MITF inhibitor project, dose response (AID 493073).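 Also: SK-MEL-5 melanoma cells with luciferase driven by the MITF target TRPM1 promoter.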 The data set is classed as functional.

Another data set has as its system INS1. In words: INS-1E survival protection against cytokine death – cell-based, luminescence, retest, dose response (AID 449756).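 Also: cell death triggered by IL-1 beta plus TNF-alpha plus IFN-gamma mixture; protective hits raise ATP signal compared with cytokine alone wells.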 It counts as functional. The conditions noted are these: Rattus norvegicus.
A short description of data set [4]: Luminescence Cell-Based Dose Retest to Confirm Inhibitors of Cancer Stem Cells. [Related pubchem assays (depositor defined):AID2717, AID2721]. It counts as functional. The conditions noted are these: Homo sapiens.
The test system of the next data set is A-375. In words: proliferation inhibition in MITF-low A375 cells – cell-based, cherry-pick samples, set 2, counter-screen for MITF modulator project, dose response (AID 540335). The data set is classed as functional. The conditions noted are these: Homo sapiens. On the technique in general: The purpose of a counterscreen is to sort out artefacts and off-target activity.

The nature of data set [5]: viability of HCT116 lacking mutant beta-catenin – cell-based, human colon tumor, dose response (AID 1045).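 Also: HCT116 colon tumor cells with beta catenin knocked out; cells exposed to compound for 60 hours.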 The data set is classed as functional.
A short description of data set [6]: viability of PTEN-deleted HCT116 cells – cell-based, HCT116 PTEN knockout, dose response (AID 1047).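 Also: HCT116 colon tumor cells with PTEN knocked out; cells exposed to compound for 60 hours before readout; potency for loss of cell viability measured by luminescence.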 It counts as functional.
For the next data set, the system named is Escherichia coli. In words: microbe, parasite or virus in culture.
The target in data set [7] is T1, Cytochrome P450 2C9. The source holds these as a separate data set.
The nature of data set [8]: MIN6 cell viability loss – mouse insulinoma, cytotoxicity control, dose response (AID 2122).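 Also: confirmatory high-throughput counterscreen run to flag cytotoxic compounds.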 It counts as functional.
A short description of data set [9]: decrease of insulin promoter-GFP reporter – imaging, high-content screening, mouse beta cells (AID 1628). The data set is classed as functional. Conditions: MIN6.
The next data set addresses T3, Protein RecA (Mycobacterium tuberculosis, UniProt P9WHJ3).
T3 sequence (P9WHJ3 whole entry): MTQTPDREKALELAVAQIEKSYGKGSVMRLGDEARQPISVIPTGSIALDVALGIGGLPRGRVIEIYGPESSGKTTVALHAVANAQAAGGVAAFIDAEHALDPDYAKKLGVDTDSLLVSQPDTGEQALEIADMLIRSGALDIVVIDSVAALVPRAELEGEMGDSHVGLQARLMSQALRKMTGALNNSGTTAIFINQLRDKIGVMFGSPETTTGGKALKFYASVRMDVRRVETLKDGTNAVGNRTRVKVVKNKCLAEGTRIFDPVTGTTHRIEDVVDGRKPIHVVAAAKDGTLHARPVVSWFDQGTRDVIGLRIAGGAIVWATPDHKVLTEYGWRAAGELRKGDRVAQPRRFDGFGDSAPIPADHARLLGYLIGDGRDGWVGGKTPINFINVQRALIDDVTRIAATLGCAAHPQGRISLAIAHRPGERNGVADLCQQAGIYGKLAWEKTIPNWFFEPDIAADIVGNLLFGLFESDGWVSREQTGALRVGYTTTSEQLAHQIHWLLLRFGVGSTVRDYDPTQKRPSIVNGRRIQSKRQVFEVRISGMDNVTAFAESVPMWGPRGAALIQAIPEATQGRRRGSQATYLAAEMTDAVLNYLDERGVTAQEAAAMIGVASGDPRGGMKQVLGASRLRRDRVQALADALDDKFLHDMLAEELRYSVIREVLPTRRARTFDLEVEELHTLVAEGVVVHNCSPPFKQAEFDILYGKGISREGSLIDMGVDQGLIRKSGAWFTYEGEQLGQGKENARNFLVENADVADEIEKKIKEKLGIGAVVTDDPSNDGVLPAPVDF
In words: Fluorescence Cell-Free Homogeneous Dose Retest to Identify Inhibitors of RecA-Intein Splicing Activity. [Related pubchem assays (depositor defined):AID2097, AID2223, AID489010, AID492950]. The data set is classed as functional.

In data set [10] the target is T4, Ubiquitin-conjugating enzyme E2 N (Homo sapiens, UniProt P61088).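 Also: Dose-response confirmation in a TR-FRET assay detecting UBC13-driven polyubiquitin chain formation, inhibition measured.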
T4 sequence (P61088 whole entry): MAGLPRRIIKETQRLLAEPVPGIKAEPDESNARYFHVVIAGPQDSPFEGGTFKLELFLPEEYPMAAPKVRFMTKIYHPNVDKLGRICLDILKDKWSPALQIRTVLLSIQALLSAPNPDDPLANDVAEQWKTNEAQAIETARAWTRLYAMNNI
The data set is classed as functional.

In data set [11] the target is T5, Replicative DNA helicase DnaB (Mycobacterium tuberculosis, UniProt P9WMR3).
T5 sequence (P9WMR3 whole entry): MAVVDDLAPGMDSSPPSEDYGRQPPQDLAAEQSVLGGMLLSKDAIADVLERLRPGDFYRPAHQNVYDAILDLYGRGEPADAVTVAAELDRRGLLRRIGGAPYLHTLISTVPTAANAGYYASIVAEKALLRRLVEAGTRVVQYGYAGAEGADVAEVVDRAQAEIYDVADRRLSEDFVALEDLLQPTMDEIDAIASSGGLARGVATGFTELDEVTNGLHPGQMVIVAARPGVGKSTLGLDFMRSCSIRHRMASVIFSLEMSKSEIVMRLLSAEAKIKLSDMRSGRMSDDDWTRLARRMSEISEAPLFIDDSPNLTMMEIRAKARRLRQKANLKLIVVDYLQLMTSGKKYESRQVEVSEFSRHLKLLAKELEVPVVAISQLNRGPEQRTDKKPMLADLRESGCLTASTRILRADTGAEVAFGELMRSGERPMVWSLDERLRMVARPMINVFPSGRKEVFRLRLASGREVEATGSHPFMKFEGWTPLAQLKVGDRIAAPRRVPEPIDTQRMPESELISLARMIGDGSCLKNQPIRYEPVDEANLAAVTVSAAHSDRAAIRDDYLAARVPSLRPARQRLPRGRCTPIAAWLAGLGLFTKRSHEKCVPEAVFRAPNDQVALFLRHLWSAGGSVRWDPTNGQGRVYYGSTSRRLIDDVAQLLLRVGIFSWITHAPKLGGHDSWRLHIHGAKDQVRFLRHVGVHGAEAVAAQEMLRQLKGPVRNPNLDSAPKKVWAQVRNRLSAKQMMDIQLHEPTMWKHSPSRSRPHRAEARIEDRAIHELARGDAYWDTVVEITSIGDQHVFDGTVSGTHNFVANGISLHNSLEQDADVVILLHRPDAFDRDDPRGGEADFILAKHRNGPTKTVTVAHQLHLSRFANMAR
In words: DnaB intein splicing inhibitors, dose response, biochemical, cell-free fluorescence (AID 449749). It counts as functional.

Data set [12] has as its target T6, Heat shock factor protein 1 (Mus musculus, UniProt P38532).
T6 sequence (P38532 whole entry): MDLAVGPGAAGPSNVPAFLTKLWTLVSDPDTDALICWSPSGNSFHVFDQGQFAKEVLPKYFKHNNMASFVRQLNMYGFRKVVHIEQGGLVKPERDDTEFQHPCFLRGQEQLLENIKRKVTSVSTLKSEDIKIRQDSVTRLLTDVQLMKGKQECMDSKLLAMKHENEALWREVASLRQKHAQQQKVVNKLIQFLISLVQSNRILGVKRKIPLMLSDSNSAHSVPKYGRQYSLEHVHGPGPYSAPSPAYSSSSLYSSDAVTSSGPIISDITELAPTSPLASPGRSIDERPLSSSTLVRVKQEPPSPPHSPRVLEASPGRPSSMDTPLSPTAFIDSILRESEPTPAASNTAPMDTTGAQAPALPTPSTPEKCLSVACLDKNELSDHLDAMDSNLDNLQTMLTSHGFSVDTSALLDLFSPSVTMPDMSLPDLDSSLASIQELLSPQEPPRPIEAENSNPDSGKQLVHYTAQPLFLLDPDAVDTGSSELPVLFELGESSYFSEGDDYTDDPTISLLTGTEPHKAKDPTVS
In words: enhancement of HSF1-driven luciferase signal – cell-based, NIH3T3, luminescence, dose retest, confirmation (AID 435004).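 Also: stress induced by proteasome inhibitor MG132 added 30 min after compound; luciferase reporter driven by HSF1 response element in NIH3T3 cells; actives raise luminescence as potentiators of the MG132 stress response.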 The data set is classed as functional.

The target of another data set is T7, Cytochrome P450 1A2 (Homo sapiens, UniProt P05177).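 Also: PubChem cytochrome P450 panel assay, CYP1A2 panel member.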
T7 sequence (P05177 whole entry): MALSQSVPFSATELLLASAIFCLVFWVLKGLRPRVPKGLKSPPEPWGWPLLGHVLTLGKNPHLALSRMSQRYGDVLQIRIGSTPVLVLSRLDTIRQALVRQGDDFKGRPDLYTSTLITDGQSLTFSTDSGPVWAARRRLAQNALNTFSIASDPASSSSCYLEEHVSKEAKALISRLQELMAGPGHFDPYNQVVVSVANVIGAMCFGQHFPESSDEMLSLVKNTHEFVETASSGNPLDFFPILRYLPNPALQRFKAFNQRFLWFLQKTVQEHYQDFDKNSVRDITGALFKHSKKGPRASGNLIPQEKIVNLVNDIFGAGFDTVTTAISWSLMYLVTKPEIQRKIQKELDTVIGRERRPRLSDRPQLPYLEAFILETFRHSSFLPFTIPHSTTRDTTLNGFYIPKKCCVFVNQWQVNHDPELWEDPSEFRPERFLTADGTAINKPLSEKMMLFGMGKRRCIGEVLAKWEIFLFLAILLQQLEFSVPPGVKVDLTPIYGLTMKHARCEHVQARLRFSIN

The target of another data set is Cytochrome P450 2C19 (Homo sapiens, UniProt P33261). Nature of the data set: Cytochrome panel assay with activity outcomes. Panel member name: p450-cyp2c19 Compounds with AC50 equal or less than 10 uM are considered active. The data set is classed as functional. The conditions noted are these: read-out: AC50.
Sequence of Cytochrome P450 2C19 (P33261 whole entry): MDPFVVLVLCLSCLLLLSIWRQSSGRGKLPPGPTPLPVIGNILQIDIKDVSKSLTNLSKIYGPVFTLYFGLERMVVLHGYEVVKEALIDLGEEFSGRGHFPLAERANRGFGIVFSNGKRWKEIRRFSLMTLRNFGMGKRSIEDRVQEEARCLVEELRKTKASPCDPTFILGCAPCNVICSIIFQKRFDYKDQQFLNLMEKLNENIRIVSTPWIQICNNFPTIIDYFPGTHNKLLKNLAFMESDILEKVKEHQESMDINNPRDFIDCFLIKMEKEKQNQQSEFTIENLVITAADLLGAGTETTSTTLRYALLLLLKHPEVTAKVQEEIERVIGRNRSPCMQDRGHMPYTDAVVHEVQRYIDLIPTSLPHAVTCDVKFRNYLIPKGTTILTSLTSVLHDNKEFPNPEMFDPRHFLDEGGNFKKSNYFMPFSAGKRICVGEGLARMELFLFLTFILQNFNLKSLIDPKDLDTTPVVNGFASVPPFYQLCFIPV

T1 sequence (P11712 whole entry): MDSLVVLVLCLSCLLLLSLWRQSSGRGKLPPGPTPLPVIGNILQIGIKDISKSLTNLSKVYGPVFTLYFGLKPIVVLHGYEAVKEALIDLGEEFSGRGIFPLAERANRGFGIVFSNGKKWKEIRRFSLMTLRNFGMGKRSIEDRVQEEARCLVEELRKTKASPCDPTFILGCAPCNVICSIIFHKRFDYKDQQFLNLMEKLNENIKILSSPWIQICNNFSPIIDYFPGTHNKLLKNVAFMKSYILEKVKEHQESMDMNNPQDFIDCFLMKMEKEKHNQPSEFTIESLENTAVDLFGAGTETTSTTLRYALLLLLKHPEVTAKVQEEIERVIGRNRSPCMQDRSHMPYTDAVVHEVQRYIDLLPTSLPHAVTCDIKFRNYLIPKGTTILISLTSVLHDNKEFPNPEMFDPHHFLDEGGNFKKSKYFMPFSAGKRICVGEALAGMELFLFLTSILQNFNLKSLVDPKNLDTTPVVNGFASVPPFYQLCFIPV

For `CCC(CC)c1nnc(NC(=O)COc2ccc3c(C)cc(=O)oc3c2)s1`, the AC50 on Cytochrome P450 2C9 [1] was 7.08 µM (inconclusive); at Cytochrome P450 3A4 it was “inconclusive”.
On to `Cc1nc(COc2ccccc2Cl)sc1-c1ccnc(N)n1`, for which the AC50 in [2] was 0.235 µM (active).
With `CN(C)CCNC(=O)/C(=C/c1ccc(-c2ccc(Cl)cc2Cl)o1)NC(=O)c1ccccc1`, the AC50 in data set [3] is 4.97 µM (active); in the data set with INS1 it was 7.89 µM (active); in [4] it was 6.63 µM (active); with A-375, 18.9 µM (active). The EC50 was 4.99 µM (active) in [5] and 5.71 µM (active) in [6].
Consider `COC(=O)C1=C(C)N(Cc2ccccc2)C(NCc2ccccc2)=N[C@H]1c1ccccc1`, for which the AC50 in [3] is 18 µM (active); in the data set on A-375, 23.7 µM (active).
Regarding `CCC(CC)C(=O)Nc1nnc(S(=O)(=O)N2CCCCCC2)s1`, the AC50 with Escherichia coli is 29.7 µM (active).
For the compound `C=CCNc1sc(C(=O)c2ccccc2)c(N)c1C#N`, the AC50 entry at Cytochrome P450 2C9 [7] and on Cytochrome P450 3A4 was “inconclusive” in each case.
Consider `c1ccc(Nc2nc(NCc3ccco3)c3ccccc3n2)cc1`, for which the IC50 in data set [8] was 1.08 µM (active); in data set [9] it was 1.22 µM (active); in data set [10] it was > 20 µM (inactive). For the same compound, the AC50 with INS1 is 5.14 µM (active); in data set [11] it was 3.66 µM (active). Besides, the EC50 at Protein RecA is 12 µM (active).
Take `Cc1nc2ccccc2n1CC(O)COCC1CC=CCC1` (centres undefined): the IC50 in [8] is 1.67 µM (active); in [9], 2.27 µM (active). For the same compound, the EC50 in [12] was > 260 µM (inactive).
Take `COc1ccc(Oc2nc(C)cc(C)c2S(C)(=O)=O)cc1`: the AC50 at Cytochrome P450 1A2 was 11.2 µM (inconclusive); at Cytochrome P450 2C19, 25.1 µM (inconclusive); at Cytochrome P450 2C9 [1] it was 15.8 µM (inconclusive); at Cytochrome P450 3A4, “inconclusive”.
As for `O=c1[nH]c(=O)n(Cc2ccco2)c2c1C(C(F)(F)F)(C(F)(F)F)NC(CCC1CCCCC1)=N2`, the AC50 is 2.82 µM (inconclusive) on Cytochrome P450 2C9 [1] and “inconclusive” at Cytochrome P450 3A4.
